Reference: patent US20180326101A1, “COMPOUND AND PHARMACEUTICAL COMPOSITION FOR TARGETED DRUG DELIVERY” (SeeCure Taiwan Co., Ltd., priority 2017, published 2018)

Target: T1, XC transporter (Homo sapiens, UniProt Q9UPY5)
T1 construct: endogenous in cells; host or cells: U251 cell line
T1 sequence (Q9UPY5 1-501): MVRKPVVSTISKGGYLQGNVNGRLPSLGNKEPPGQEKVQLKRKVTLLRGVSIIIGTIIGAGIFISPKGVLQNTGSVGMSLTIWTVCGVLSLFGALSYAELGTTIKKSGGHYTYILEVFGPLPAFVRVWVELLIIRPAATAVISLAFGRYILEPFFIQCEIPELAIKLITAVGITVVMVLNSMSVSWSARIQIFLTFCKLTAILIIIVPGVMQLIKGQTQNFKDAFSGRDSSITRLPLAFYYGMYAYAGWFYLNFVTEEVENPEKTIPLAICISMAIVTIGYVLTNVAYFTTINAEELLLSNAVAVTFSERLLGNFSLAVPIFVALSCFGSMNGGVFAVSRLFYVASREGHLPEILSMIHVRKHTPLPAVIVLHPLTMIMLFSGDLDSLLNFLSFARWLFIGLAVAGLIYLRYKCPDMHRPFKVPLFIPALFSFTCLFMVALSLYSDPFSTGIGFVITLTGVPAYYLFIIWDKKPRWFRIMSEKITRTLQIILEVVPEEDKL
T1 sequence (P08195 1-529 partner): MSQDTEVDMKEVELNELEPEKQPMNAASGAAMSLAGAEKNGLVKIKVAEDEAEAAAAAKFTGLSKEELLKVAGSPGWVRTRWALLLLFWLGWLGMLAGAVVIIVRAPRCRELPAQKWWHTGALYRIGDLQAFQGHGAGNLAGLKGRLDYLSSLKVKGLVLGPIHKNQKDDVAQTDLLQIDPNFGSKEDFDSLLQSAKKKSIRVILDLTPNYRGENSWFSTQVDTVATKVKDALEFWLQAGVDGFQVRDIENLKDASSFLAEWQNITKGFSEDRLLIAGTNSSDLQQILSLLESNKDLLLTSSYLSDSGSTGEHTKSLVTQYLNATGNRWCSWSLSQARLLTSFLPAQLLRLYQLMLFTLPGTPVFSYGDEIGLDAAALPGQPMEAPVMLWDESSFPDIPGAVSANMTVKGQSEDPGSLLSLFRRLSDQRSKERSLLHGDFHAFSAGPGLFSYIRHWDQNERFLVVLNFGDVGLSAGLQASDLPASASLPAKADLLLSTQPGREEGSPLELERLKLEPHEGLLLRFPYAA
Test: Blocking studies of cellular uptake with sulfasalazine (SAS) or cysteine
Assay type: cell-based
Settings: U251 cells, 2 hours incubation
Method: The cellular uptake of the ^99mTc-SAC-A and the ^99mTc-SAC-B compounds were performed using an U251 cell line. The cells were planted onto tissue culture plates at a concentration of 350,000 cells per well for the uptake and blocking studies. The cells were cultured in Eagle's MEM with Earle's BSS (90%) and fetal bovine serum (10%) under standard culture conditions (37° C., 95% humidified air and 5% CO2). After seeding, the cells were incubated at 37° C. for 48 hours to allow for cell attachment and growth. After reaching approximately 70% confluency of cells, the cells are ready for use in the cellular uptake/blocking experiments.
Specifically, upon reaching 70% cell confluency, the growth media were aspirated and the cells were washed twice with phosphate buffered saline (PBS). Serum-free media and the ^99mTc-SAC-A compound or ^99mTc-SAC-B compound obtained above were respectfully added to the each of the wells for performing the cellular uptake experiment. For the blocking studies, the cells were pre-treated with 500 μM and 1000 μM of sulfasalazine (SAS; a XC transporter specific inhibitor) or 500 μM and 1000 μM of cysteine (a competitive inhibitor) for 30 minutes prior to the addition of the ^99mTc-SAC-A or ^99mTc-SAC-B compounds. […] After 2 hours, the cells in each of the wells are washed with PBS, the cells are then collected and its radioactivity were counted using a gamma counter. […]

- cellular uptake when blocking agent cysteine (competitive inhibitor) was added (500 μM and 1000 μM cysteine pre-treatment 30 min): mostly inhibited
- cellular uptake when blocking agent SAS (XC transporter specific inhibitor) was added (500 μM and 1000 μM sulfasalazine pre-treatment 30 min): mostly inhibited
Structure (SMILES): N[C@@H](CS[C@@H](CC(=O)O)C(=O)O)C(=O)O [SAC-B]
